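Cells were grown in 96-well plates and exposed to each compound for 48 hours at five concentrations; endpoints were interpolated linearly between bracketing concentrations, or set to the highest concentration if not reached. TGI is the concentration that stops growth completely.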
How the values were obtained:
Experiment in all cases: NCI tumour cell line growth inhibition, 48 h
HOP-92 NSCLC = tested on: HOP-92 NSCLC
RPMI-8226 leukemia = tested on: RPMI-8226 leukemia
CAKI-1 renal = tested on: CAKI-1 renal
SF-539 CNS = tested on: SF-539 CNS
MDA-MB-435 = tested on: MDA-MB-435
SK-OV-3 ovarian = tested on: SK-OV-3 ovarian
HCT-15 colon = tested on: HCT-15 colon
SF-295 CNS = tested on: SF-295 CNS
T-47D breast = tested on: T-47D breast
OVCAR-5 ovarian = tested on: OVCAR-5 ovarian
HCC-2998 colon = tested on: HCC-2998 colon
786-0 renal = tested on: 786-0 renal
SNB-19 CNS = tested on: SNB-19 CNS
BT-549 breast = tested on: BT-549 breast
U251 CNS = tested on: U251 CNS
NCI-H23 lung = tested on: NCI-H23 lung
HS 578T breast = tested on: HS 578T breast
HT29 colon = tested on: HT29 colon
IGROV1 ovarian = tested on: IGROV1 ovarian
NCI-H522 lung = tested on: NCI-H522 lung
OVCAR-4 ovarian = tested on: OVCAR-4 ovarian
SK-MEL-2 melanoma = tested on: SK-MEL-2 melanoma
MCF7 breast = tested on: MCF7 breast
DU-145 prostate = tested on: DU-145 prostate
A549 NSCLC = tested on: A549 NSCLC
M14 melanoma = tested on: M14 melanoma
SR leukemia = tested on: SR leukemia
NCI/ADR-RES ovarian = tested on: NCI/ADR-RES ovarian
TK-10 renal = tested on: TK-10 renal
A498 renal = tested on: A498 renal
K-562 leukemia = tested on: K-562 leukemia
SK-MEL-5 melanoma = tested on: SK-MEL-5 melanoma
SNB-75 CNS = tested on: SNB-75 CNS
RXF 393 renal = tested on: RXF 393 renal
UO-31 renal = tested on: UO-31 renal
COLO 205 colon = tested on: COLO 205 colon
SN12C renal = tested on: SN12C renal
UACC-257 melanoma = tested on: UACC-257 melanoma
ACHN renal = tested on: ACHN renal
MDA-MB-231 breast = tested on: MDA-MB-231 breast
SK-MEL-28 melanoma = tested on: SK-MEL-28 melanoma
KM12 colon = tested on: KM12 colon
HOP-62 NSCLC = tested on: HOP-62 NSCLC
CCRF-CEM leukemia = tested on: CCRF-CEM leukemia
PC-3 prostate = tested on: PC-3 prostate
NCI-H226 lung = tested on: NCI-H226 lung
UACC-62 melanoma = tested on: UACC-62 melanoma
NCI-H460 lung = tested on: NCI-H460 lung
SF-268 CNS = tested on: SF-268 CNS
EKVX NSCLC = tested on: EKVX NSCLC
MOLT-4 leukemia = tested on: MOLT-4 leukemia
SW-620 colon = tested on: SW-620 colon
OVCAR-8 ovarian = tested on: OVCAR-8 ovarian
HL-60(TB) leukemia = tested on: HL-60(TB) leukemia
HCT-116 colon = tested on: HCT-116 colon

Nc1nc(CCl)nc(N2CCOCC2)n1
TGI (HOP-92 NSCLC): 32.2 µM | TGI (RPMI-8226 leukemia): > 100 µM | TGI (CAKI-1 renal): 30.5 µM | TGI (SF-539 CNS): 51.9 µM | TGI (MDA-MB-435): > 100 µM | TGI (SK-OV-3 ovarian): > 100 µM | TGI (HCT-15 colon): 34.9 µM | TGI (SF-295 CNS): > 100 µM | TGI (T-47D breast): > 100 µM | TGI (OVCAR-5 ovarian): 47.3 µM | TGI (HCC-2998 colon): 36.3 µM | TGI (786-0 renal): 29.2 µM | TGI (SNB-19 CNS): > 100 µM | TGI (BT-549 breast): > 100 µM | TGI (U251 CNS): 53.9 µM | TGI (NCI-H23 lung): 35.1 µM | TGI (HS 578T breast): > 100 µM | TGI (HT29 colon): > 100 µM | TGI (IGROV1 ovarian): 32.6 µM | TGI (NCI-H522 lung): 11.1 µM | TGI (OVCAR-4 ovarian): 33.4 µM | TGI (SK-MEL-2 melanoma): > 100 µM | TGI (MCF7 breast): > 100 µM | TGI (DU-145 prostate): > 100 µM | TGI (A549 NSCLC): > 100 µM | TGI (M14 melanoma): > 100 µM | TGI (SR leukemia): 61.8 µM | TGI (NCI/ADR-RES ovarian): 89.2 µM | TGI (TK-10 renal): > 100 µM | TGI (A498 renal): > 100 µM | TGI (K-562 leukemia): 54.4 µM | TGI (SK-MEL-5 melanoma): 46.2 µM | TGI (SNB-75 CNS): 98.6 µM | TGI (RXF 393 renal): > 100 µM | TGI (UO-31 renal): 31.6 µM | TGI (COLO 205 colon): 32.5 µM | TGI (SN12C renal): > 100 µM | TGI (UACC-257 melanoma): > 100 µM | TGI (ACHN renal): 32.5 µM | TGI (MDA-MB-231 breast): 78.7 µM | TGI (SK-MEL-28 melanoma): 45.9 µM | TGI (KM12 colon): > 100 µM | TGI (HOP-62 NSCLC): 44.5 µM | TGI (CCRF-CEM leukemia): 45.7 µM | TGI (PC-3 prostate): > 100 µM | TGI (NCI-H226 lung): > 100 µM | TGI (UACC-62 melanoma): 31.4 µM | TGI (NCI-H460 lung): 41.1 µM | TGI (SF-268 CNS): > 100 µM | TGI (EKVX NSCLC): 38 µM | TGI (MOLT-4 leukemia): > 100 µM | TGI (SW-620 colon): 60.4 µM | TGI (OVCAR-8 ovarian): > 100 µM | TGI (HL-60(TB) leukemia): 35.6 µM | TGI (HCT-116 colon): 66.1 µM
